# Tests used:
# sheep body louse D. ovis = assay: Example 3, varying concentration of active: lice counts on sheep; assay type: in vivo, Damalinia ovis
# Method: Testing for ectoparasite infestation was carried out by counting the number of parasites present in 20 partings taken on each side of the sheep (40 partings in total).
# In order to determine the minimum effective concentration of active agent possible upon application of 150 mL/50 kg sheep, the following formulations were prepared: […]
# For each of Examples 3A-E, the treatments were applied immediately after shearing along the backline in 4-6 strips (depending on the volume to be applied. Details are as follows:
# Treatments were applied using the NZ Protector dial-a-dose drench/pour-on gun.
# Once treated, each group was penned separately in electrified paddocks where they were kept for the duration of the trial.
# Lice counts were performed pre-shearing 7, 14, 21, 28, 35 and 42 days after treatment using the 20 partings per side technique.
# Percentage reduction in lice counts was calculated using the change in lice counts for the control group as a correction factor, using the formula given in example 1.
# [1] = Example 6, degree of translocation: diazinon levels in wool and skin scrapings; assay type: in vivo, sheep; conditions: for DIAZINON (PPM) - WHOLE WOLL BELLY-LINE MEAN / DIAZINON (PPM) - WHOLE WOLL MIDLINE MEAN: Example 6 formulation, 3mL per kg
# Method: A 3 year old merino was shorn, weighed and treated immediately with the diazinon spray-on. It had not received any insecticide treatment for 12 months. The sheep weighed 37 kg and was treated with 110mL of the product. A wide band was applied from high on the neck, behind the ears, to the butt of the tail at a dosage rate of 3mL per kg bodyweight.
# The animal was hand restrained during treatment and placed under cover in a pen with mesh floor and sides for the duration of the trial.
# During and after treatment, the sheep had no contact with other treated animals and was not exposed to any rain.
# On advice from the State Chemistry Laboratory, Department of Agriculture, Victoria, approximately 2cm square scrapings of wool and skin were taken as follows:
# The values (PPM diazinon) are reported on a whole wool basis.
# The approximate concentration in wool grease can be calculated on the basis of the average wool grease content of the wool is 18.4% w/w ie., multiply the individual results by a factor of 5.4.
smiles,measurement,setting,value
CCOP(=S)(OCC)Oc1cc(C)nc(C(C)C)n1 [Diazinon],eradication of the sheep body louse D. ovis,sheep body louse D. ovis; 10 mg/kg (0.33% w/w),failed to eradicate
same,eradication of the sheep body louse D. ovis,sheep body louse D. ovis; 15 mg/kg (0.5% w/w),failed to eradicate
same,DIAZINON (PPM) - WHOLE WOLL (MEAN VALUES) BELLY-LINE LEFT,[1]; 1 day post treatment,407 PPM
same,DIAZINON (PPM) - WHOLE WOLL (MEAN VALUES) BELLY-LINE RIGHT,[1]; 1 day post treatment,190 PPM
same,DIAZINON (PPM) - WHOLE WOLL (MEAN VALUES) MIDLINE LEFT,[1]; 1 day post treatment,808 PPM
same,DIAZINON (PPM) - WHOLE WOLL (MEAN VALUES) MIDLINE RIGHT,[1]; 1 day post treatment,330 PPM
same,DIAZINON (PPM) - WHOLE WOLL BELLY-LINE MEAN,[1]; 1 day post treatment,298 PPM
same,DIAZINON (PPM) - WHOLE WOLL MIDLINE MEAN,[1]; 1 day post treatment,569 PPM
same,DIAZINON (PPM) - WHOLE WOLL (MEAN VALUES) BELLY-LINE LEFT,[1]; 3 days post treatment,185 PPM
same,DIAZINON (PPM) - WHOLE WOLL (MEAN VALUES) BELLY-LINE RIGHT,[1]; 3 days post treatment,112 PPM
same,DIAZINON (PPM) - WHOLE WOLL (MEAN VALUES) MIDLINE LEFT,[1]; 3 days post treatment,496 PPM
same,DIAZINON (PPM) - WHOLE WOLL (MEAN VALUES) MIDLINE RIGHT,[1]; 3 days post treatment,323 PPM
same,DIAZINON (PPM) - WHOLE WOLL BELLY-LINE MEAN,[1]; 3 days post treatment,148.5 PPM
same,DIAZINON (PPM) - WHOLE WOLL MIDLINE MEAN,[1]; 3 days post treatment,410 PPM
same,DIAZINON (PPM) - WHOLE WOLL (MEAN VALUES) BELLY-LINE LEFT,[1]; 7 days post treatment,287 PPM
same,DIAZINON (PPM) - WHOLE WOLL (MEAN VALUES) BELLY-LINE RIGHT,[1]; 7 days post treatment,216 PPM
same,DIAZINON (PPM) - WHOLE WOLL (MEAN VALUES) MIDLINE LEFT,[1]; 7 days post treatment,503 PPM
same,DIAZINON (PPM) - WHOLE WOLL (MEAN VALUES) MIDLINE RIGHT,[1]; 7 days post treatment,237 PPM
same,DIAZINON (PPM) - WHOLE WOLL BELLY-LINE MEAN,[1]; 7 days post treatment,251.2 PPM
same,DIAZINON (PPM) - WHOLE WOLL MIDLINE MEAN,[1]; 7 days post treatment,370 PPM
same,"diazinon in whole wool, belly-line right rump",[1]; Day 1,53 PPM
same,"diazinon in the wool grease, belly-line right rump","[1]; Day 1, whole wool value multiplied by 5.4",286 PPM

# Source: EP0680339B1, “ECTOPARASITICIDAL FORMULATION” (priority 1993, dated 1994)
